# Patent US11479470B2, “Three-dimensional boron-rich clusters” (The Regents of the University of California, priority 2016, dated 2022)
# Entries after “also recorded” stand apart in the source; their conditions may differ.
# Target: concanavalin A (ConA) (Canavalia ensiformis, UniProt P02866)
# Experiment: Surface plasmon resonance (Biacore T100) binding of glycosylated OCN to immobilised lectin
# Conditions: injected at the highest mass concentration of [2l] shown (2.0 mg 1-1)
# Procedure: ConA was covalently attached to the Au-coated sensor chip's dextran layer via conventional amide coupling, and binding between ConA and the injected analyte was measured as a change in the refractive index (RI) and expressed in response units (RU). […] (See, e.g., Kamiya, N., et al., J. Am. Chem. Soc. 129, 3816-3817 (2007), the disclosure of which is incorporated herein by reference.)
structure (smiles),measurement,value
O=C[C@H](O)[C@@H](O)[C@H](O)[C@H](O)CO [D-glucose],binding response to ConA (controls),minimal to no binding; also recorded: minimal binding
